Experiments:
[1] = Equieffective molar ratio is ratio of the concentration of the test compound and dequalinium that cause 50% inhibition of AHP
Rattus norvegicus [2] = organism: Rattus norvegicus; assay: tested for their ability to inhibit the after- hyperpolarization in cultured rat sympathetic neurons; assay type: functional, Sympathetic neuron
Rattus norvegicus [3] = organism: Rattus norvegicus; assay: tested for their ability to inhibit the after- hyperpolarization in cultured rat sympathetic neurons (omitting the comparison with dequalinium); assay type: functional; settings: Sympathetic neuron
Rattus norvegicus [4] = organism: Rattus norvegicus; assay: tested for their ability to inhibit the after- hyperpolarization (AHP) in cultured rat sympathetic neurons; assay type: functional; settings: Sympathetic neuron
[5] = Rattus norvegicus, Sympathetic neuron

Row | SMILES | EMR [1] | IC50 (Rattus norvegicus [2]; [5]) [nM] | IC50 (Rattus norvegicus [3]) [nM] | IC50 (Rattus norvegicus [2]; sympathetic neuron) [nM] | IC50 (Rattus norvegicus [4]) [nM]
1 | [I-].[I-].c1ccc2c(c1)c1cc[n+]2CCCCCC[n+]2ccc(c3ccccc32)NCCCCCCN1 | 0.1 | 60 |  |  | 
2 | [I-].[I-].c1ccc2c(c1)c1cc[n+]2CCCC[n+]2ccc(c3ccccc32)NCCCCN1 | 0.09 | 40 |  |  | 
3 | [I-].[I-].c1ccc2c(c1)c1cc[n+]2CCCCCCCCCC[n+]2ccc(c3ccccc32)NCCCCCCCCCCN1 | 0.44 | 260 |  |  | 
4 | c1cc2cc(c1)C[n+]1ccc(c3ccccc31)NCc1ccc(cc1)CNc1cc[n+](c3ccccc13)C2 | 0.01 |  |  |  | 
5 | [I-].[I-].c1ccc2c(c1)c1cc[n+]2CCCCCCCC[n+]2ccc(c3ccccc32)NCCCCCCCCN1 | 0.43 | 190 |  |  | 
6 | [I-].[I-].c1ccc2c(c1)c1cc[n+]2CCCCC[n+]2ccc(c3ccccc32)NCCCCCN1 | 0.003 | 2 | 2.7 |  | 
7 | [I-].[I-].c1ccc2c(c1)c1cc[n+]2CCC[n+]2ccc(c3ccccc32)NCCCN1 (stereo in doubt; form 1) | 0.27 |  |  | 130 | 
8 | [I-].[I-].c1ccc2c(c1)c1cc[n+]2CCC[n+]2ccc(c3ccccc32)NCCCN1 (stereo in doubt; form 2) | 0.77 |  |  | 380 | 
9 | Cc1cc(N)c2ccccc2[n+]1CCCCCCCCCC[n+]1c(C)cc(N)c2ccccc21.[Cl-].[Cl-] [DEQUALINIUM CHLORIDE] | 1 |  |  |  | 490
